In patent US20050009840A1 (SUGEN, INC., priority 2003, published 2005):
pIC50: −log10 of the molar value.

target: T1, Met kinase domain (GST fusion protein) (Homo sapiens, UniProt P08581); test: Met transphosphorylation assay (ELISA, poly(glu-tyr) substrate); type: biochemical; details: read-out: Met IC50;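 note: Cell-free ELISA with plate-bound poly(Glu:Tyr 4:1) phosphorylated by GST-fused Met kinase domain plus ATP and Mn2+, phosphotyrosine detected by anti-phosphotyrosine antibody with HRP and ABTS read-out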
T1 construct: Purified GST fusion protein containing the Met kinase domain
T1 sequence (P08581 1078-1345 limits assumed): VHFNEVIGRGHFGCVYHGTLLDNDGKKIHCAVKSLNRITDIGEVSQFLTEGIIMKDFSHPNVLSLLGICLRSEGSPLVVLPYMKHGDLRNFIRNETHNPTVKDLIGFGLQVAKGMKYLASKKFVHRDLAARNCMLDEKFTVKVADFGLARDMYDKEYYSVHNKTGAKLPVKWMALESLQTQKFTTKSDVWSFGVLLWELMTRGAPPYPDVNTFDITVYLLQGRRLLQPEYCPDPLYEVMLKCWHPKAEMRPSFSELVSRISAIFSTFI

Compound | pIC50
CC(Oc1nc(-c2cccc(C(=O)NCCN3CCCC3)c2)cnc1N)c1c(F)ccc(F)c1Cl (stereo not drawn) [II-99, 3-{5-Amino-6-[1-(2-chloro-3,6-difluoro-phenyl)-ethoxy]-pyrazin-2-yl}-N-(2-pyrrolidin-1-yl-ethyl)-benzamide] | 6.74
CC(Oc1nc(-c2cccc(C(=O)NCCN3CCOCC3)c2)cnc1N)c1c(F)ccc(F)c1Cl (stereo not drawn) [II-100, 3-{5-Amino-6-[1-(2-chloro-3,6-difluoro-phenyl)-ethoxy]-pyrazin-2-yl}-N-(2-morpholin-4-yl-ethyl)-benzamide] | 6.51
CC(Oc1nc(-c2ccc(C(=O)N3CCN(C)CC3)cc2)cnc1N)c1c(F)ccc(F)c1Cl (stereo not drawn) [II-110, (4-{5-Amino-6-[1-(2-chloro-3,6-difluoro-phenyl)-ethoxy]-pyrazin-2-yl}-phenyl)-(4-methyl-piperazin-1-yl)-methanone] | 6.80
CC(Oc1nc(-c2ccc(C(=O)N3CCC[C@@H]3CN3CCCC3)cc2)cnc1N)c1c(F)ccc(F)c1Cl (stereo partly drawn) [II-114, (4-{5-Amino-6-[1-(2-chloro-3,6-difluoro-phenyl)-ethoxy]-pyrazin-2-yl}-phenyl)-((R)-2-pyrrolidin-1-ylmethyl-pyrrolidin-1-yl)-methanone] | 6.89
CC(Oc1nc(-c2ccc(C(=O)NC3CCN(C)CC3)cc2)cnc1N)c1c(F)ccc(F)c1Cl (stereo not drawn) [II-116, 4-{5-Amino-6-[1-(2-chloro-3,6-difluoro-phenyl)-ethoxy]-pyrazin-2-yl}-N-(1-methyl-piperidin-4-yl)-benzamide] | 6.72
CC(Oc1nc(-c2ccc(C(=O)NCCN3CCCC3)cc2)cnc1N)c1c(F)ccc(F)c1Cl (stereo not drawn) [II-117, 4-{5-Amino-6-[1-(2-chloro-3,6-difluoro-phenyl)-ethoxy]-pyrazin-2-yl}-N-(2-pyrrolidin-1-yl-ethyl)-benzamide] | 6.96
Nc1ncc(-c2cccc(C(=O)N3CCC(N4CCCC4)CC3)c2)nc1OCc1cccc(F)c1C(F)(F)F [II-122, {3-[5-Amino-6-(3-fluoro-2-trifluoromethyl-benzyloxy):pyrazin-2-yl]-phenyl)(4-pyrrolidin-1-yl-piperidin-1-yl)-methanone] | 6.72
CN1CCN(C(=O)c2cccc(-c3cnc(N)c(OCc4cccc(F)c4C(F)(F)F)n3)c2)CC1 [II-124, {3-[5-Amino-6-(3-fluoro-2-trifluoromethyl-benzylloxy)-pyrazin-2-yl]-phenyl}-(4-methyl-piperazin-1-yl)-methanone] | 6.64
Nc1ncc(-c2cccc(C(=O)NCCCN3CCCC3)c2)nc1OCc1cccc(F)c1C(F)(F)F [II-125, 3-[5-Amino-6-(3-fluoro-2-trifluoromethyl-benzyloxy)-pyrazin-2-yl]-N-(3-pyrrolidin-1-yl-propyl)-benzamide] | 6.66
Nc1ncc(-c2ccc(C(=O)N3CCC(N4CCCC4)CC3)cc2)nc1OCc1cccc(F)c1C(F)(F)F [II-127, {4-[5-Amino-6-(3-fluoro-2-trifluoromethyl-benzyloxy)-pyrazin-2-yl]-phenyl}-(4-pyrrolidin-1-yl-piperidin-1-yl)-methanone] | 7.33
CN1CCN(C(=O)c2ccc(-c3cnc(N)c(OCc4cccc(F)c4C(F)(F)F)n3)cc2)CC1 [II-128, {4-[5-Amino-6-(3-fluoro-2-trifluoromethyl-benzyloxy)-pyrazin-2-yl]-phenyl}-(4-methyl-piperazin-1-yl)-methanone] | 6.82
Nc1ncc(-c2ccc(C(=O)N3CCC[C@H]3CN3CCCC3)cc2)nc1OCc1cccc(F)c1C(F)(F)F [II-129, {4-[5-Amino-6-(3-fluoro-2-trifluoromethyl-benzyloxy)-pyrazin-2-yl]-phenyl}-((S)-2-pyrrolidin-1-ylmethyl-pyrrolidin-1-yl)-methanone] | 7.28
CC(Oc1nc(-c2cccc(C(=O)NC3CCN(C)CC3)c2)cnc1N)c1c(Cl)ccc(F)c1Cl (stereo not drawn) [II-132, 3-{5-Amino-6-[1-(2,6-dichloro-3-fluoro-phenyl)-ethoxy]-pyrazin-2-yl}-N-(1-methyl-piperidin-4-yl)-benzamide] | 6.89
CC(Oc1nc(-c2cccc(C(=O)NCCN3CCOCC3)c2)cnc1N)c1c(Cl)ccc(F)c1Cl (stereo not drawn) [II-134, 3-{5-Amino-6-[1-(2,6-dichloro-3-fluoro-phenyl)-ethoxy]-pyrazin-2-yl}-N-(2-morpholin-4-yl-ethyl)-benzamide] | 6.68
CC(Oc1nc(-c2cccc(C(=O)N3CCC(NC4CC4)CC3)c2)cnc1N)c1c(Cl)ccc(F)c1Cl (stereo not drawn) [II-136, (3-{5-Amino-6-[1-(2,6-dichloro-3-fluoro-phenyl)-ethoxy]-pyrazin-2-yl}-phenyl)-(4-cyclopropylamino-piperidin-1-yl)-methanone] | 6.82
CC(Oc1nc(-c2cccc(C(=O)NC[C@H](O)CN3CCOCC3)c2)cnc1N)c1c(Cl)ccc(F)c1Cl (stereo partly drawn) [II-137, 3-{5-Amino-6-[1-(2,6-dichloro-3-fluoro-phenyl)-ethoxy]-pyrazin-2-yl}-N-((S)-2-hydroxy-3-morpholin-4-yl-propyl)-benzamide] | 6.52
CC(Oc1nc(-c2cccc(C(=O)NC[C@@H](O)CN3CCCC3)c2)cnc1N)c1c(Cl)ccc(F)c1Cl (stereo partly drawn) [II-138, 3-{5-Amino-6-[1-(2,6-dichloro-3-fluoro-phenyl)-ethoxy]-pyrazin-2-yl}-N-((R)-2-hydroxy-3-pyrrolidin-1-yl-propyl)-benzamide] | 6.89

The remaining compounds from weak to strong by pIC50, led by results:

pIC50 | Compound
6.19 | CC(=O)N1CCN(CCNC(=O)c2cccc(-c3cnc(N)c(OCc4cccc(F)c4C(F)(F)F)n3)c2)CC1 [II-126, N-[2-(4-Acetyl-piperazin-1-yl)-ethyl]-3-[5-amino-6-(3-fluoro-2-trifluoromethyl-benzyloxy)-pyrazin-2-yl]-benzamide]
6.19 | CC(=O)N1CCN(CCNC(=O)c2cccc(-c3cnc(N)c(OC(C)c4c(F)ccc(F)c4Cl)n3)c2)CC1 (stereo not drawn) [II-101, N-[2-(4-Acetyl-piperazin-1-yl)ethyl]-3-{5-amino-6-[1-(2-chloro-3,6-difluoro-phenyl)-ethoxy]-pyrazin-2-yl}-benzamide]
6.32 | CC(=O)N1CCN(CCNC(=O)c2ccc(-c3cnc(N)c(OC(C)c4c(F)ccc(F)c4Cl)n3)cc2)CC1 (stereo not drawn) [II-119, N-[2-(4-Acetyl-piperazin-1-yl)-ethyl]-4-{5-amino-6-[1-(2-chloro-3,6-difluoro-phenyl)-ethoxy]-pyrazin-2-yl}-benzamide]
6.46 | CCN(CC)CCS(=O)(=O)Nc1ccc(-c2cnc(N)c(OC(C)c3c(Cl)ccc(F)c3Cl)n2)cc1 (stereo not drawn) [II-140, 2-Diethylamino-ethanesulfonic acid (4-{5-amino-6-[1-(2,6-dichloro-3-fluoro-phenyl)-ethoxy]-pyrazin-2-yl}-phenyl)-amide]
6.59 | CC(Oc1nc(-c2ccc(C(=O)NCCN3CCOCC3)cc2)cnc1N)c1c(F)ccc(F)c1Cl (stereo not drawn) [II-118, 4-{5-Amino-6-[1-(2-chloro-3,6-difluoro-phenyl)-ethoxy]-pyrazin-2-yl}-N-(2-morpholin-4-yl-ethyl)-benzamide]
6.59 | CC(Oc1nc(-c2cccc(C(=O)NCCCN3CCOCC3)c2)cnc1N)c1c(Cl)ccc(F)c1Cl (stereo not drawn) [II-135, 3-{5-Amino-6-[1-(2,6-dichloro-3-fluoro-phenyl)-ethoxy]-pyrazin-2-yl}-N-(3-morpholin-4-yl-propyl)-benzamide]
6.72 | CC(Oc1nc(-c2ccc(C(=O)N3C[C@@H](C)N[C@@H](C)C3)cc2)cnc1N)c1c(F)ccc(F)c1Cl (stereo partly drawn) [II-112]
6.72 | CC(Oc1nc(-c2ccc(NS(=O)(=O)CCN3CCN(C(=O)CO)CC3)cc2)cnc1N)c1c(F)ccc(F)c1Cl (stereo not drawn) [II-120, 2-[4-(2-Hydroxy-acetyl)-piperazin-1-yl]-ethanesulfonic acid (4-{5-amino-6-[1-(2-chloro-3,6-difluoro-phenyl)-ethoxy]-pyrazin-2-yl}-phenyl)-amide]
6.74 | CC(Oc1nc(-c2ccc(C(=O)N3CCC[C@H]3CN3CCCC3)cc2)cnc1N)c1c(F)ccc(F)c1Cl (stereo partly drawn) [II-113, (4-{5-Amino-6-[1-(2-chloro-3,6-difluoro-phenyl)-ethoxy]-pyrazin-2-yl}-phenyl)-((S)-2-pyrrolidin-1-ylmethyl-pyrrolidin-1-yl)-methanone]
6.77 | CC(Oc1nc(-c2ccc(C(=O)N3CCC(N4CCCC4)CC3)cc2)cnc1N)c1c(F)ccc(F)c1Cl (stereo not drawn) [II-111, (4-{5-Amino-6-[1-(2-chloro-3,6-difluoro-phenyl)-ethoxy]-pyrazin-2-yl}-phenyl)-(4-pyrrolidin-1-yl-piperidin-1-yl)-methanone]
6.77 | CC(Oc1nc(-c2cccc(C(=O)N3CCN(C)CC3)c2)cnc1N)c1c(Cl)ccc(F)c1Cl (stereo not drawn) [II-130, (3-{5-Amino-6-[1-(2,6-dichloro-3-fluoro-phenyl)-ethoxy]-pyrazin-2-yl}-phenyl)-(4-methyl-piperazin-1-yl)-methanone]
6.77 | CC(Oc1nc(-c2cccc(C(=O)NCCN3CCCC3)c2)cnc1N)c1c(Cl)ccc(F)c1Cl (stereo not drawn) [II-133, 3-{5-Amino-6-[1-(2,6-dichloro-3-fluoro-phenyl)-ethoxy]-pyrazin-2-yl}-N-(2-pyrrolidin-1-yl-ethyl)-benzamide]
6.92 | CC(Oc1nc(-c2cccc(C(=O)N3C[C@@H](C)N[C@@H](C)C3)c2)cnc1N)c1c(Cl)ccc(F)c1Cl (stereo partly drawn) [II-131, (3-{5-Amino-6-[1-(2,6-dichloro-3-fluoro-phenyl)-ethoxy]-pyrazin-2-yl}-phenyl)-((3R,5S)-3,5-dimethyl-piperazin-1-yl)-methanone]
7.00 | CC(Oc1nc(-c2ccc(C(=O)NCCCN3CCCC3)cc2)cnc1N)c1c(F)ccc(F)c1Cl (stereo not drawn) [II-109, 4-{5-Amino-6-[1-(2-chloro-3,6-difluoro-phenyl)-ethoxy]-pyrazin-2-yl}-N-(3-pyrrolidin-1-yl-propyl)-benzamide]
7.11 | CC(Oc1nc(-c2ccc(C(=O)N3CC[C@@H](N)C3)cc2)cnc1N)c1c(F)ccc(F)c1Cl (stereo partly drawn) [II-115, (4-{5-Amino-6-[1-(2-chloro-3,6-difluoro-phenyl)-ethoxy]-pyrazin-2-yl}-phenyl)-((R)-3-amino-pyrrolidin-1-yl)-methanone]
7.15 | CC(Oc1cc(-c2cccc(C(=O)N3CCC(N4CCCC4)CC3)c2)cnc1N)c1c(Cl)ccc(F)c1Cl (stereo not drawn) [II-139, (3-{6-Amino-5-[1-(2,6-dichloro-3-fluoro-phenyl)-ethoxy]-pyridin-3-yl}-phenyl)-(4-pyrrolidin-1-yl-piperidin-1-yl)-methanone]
